# Values joined by “and” are separate entries in the source; they are usually repeats but may differ in a detail not shown here. Equal values may be shown once. Active and inactive are the calls of the source.
# Columns and labels:
# [1] = target: T1, Corticotropin-releasing factor receptor 2/Corticotropin-releasing factor-binding protein (Homo sapiens, UniProt P24387+Q13324); test: Dose Response confirmation of uHTS hits for small molecule antagonists of the CRF-binding protein and CRF-R2 receptor complex.; format: functional; details: read-out: IC50_Mean
# T1 sequence (Q13324 whole entry): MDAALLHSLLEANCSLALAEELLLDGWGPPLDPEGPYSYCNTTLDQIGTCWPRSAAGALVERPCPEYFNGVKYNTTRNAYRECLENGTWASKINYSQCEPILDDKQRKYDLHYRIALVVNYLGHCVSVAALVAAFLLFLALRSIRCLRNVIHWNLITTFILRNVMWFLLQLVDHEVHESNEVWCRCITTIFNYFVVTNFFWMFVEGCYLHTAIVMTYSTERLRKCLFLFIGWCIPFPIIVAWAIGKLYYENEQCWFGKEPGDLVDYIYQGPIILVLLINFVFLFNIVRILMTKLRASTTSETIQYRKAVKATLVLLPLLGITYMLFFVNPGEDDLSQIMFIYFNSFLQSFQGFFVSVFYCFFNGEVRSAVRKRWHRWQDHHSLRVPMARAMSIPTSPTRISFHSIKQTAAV
# T1 sequence (P24387 whole entry): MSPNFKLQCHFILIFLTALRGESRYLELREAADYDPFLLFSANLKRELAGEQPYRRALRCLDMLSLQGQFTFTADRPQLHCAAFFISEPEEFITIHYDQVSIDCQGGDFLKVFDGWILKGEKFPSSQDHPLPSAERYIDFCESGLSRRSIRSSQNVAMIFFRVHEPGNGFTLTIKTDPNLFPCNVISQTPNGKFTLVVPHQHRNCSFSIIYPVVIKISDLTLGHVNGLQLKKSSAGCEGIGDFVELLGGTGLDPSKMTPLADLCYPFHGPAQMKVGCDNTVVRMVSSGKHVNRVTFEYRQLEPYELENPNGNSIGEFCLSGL
# [2] = target: T1, Corticotropin-releasing factor receptor 2/Corticotropin-releasing factor-binding protein; test: activators of CRF receptor 2 with binding protein – uHTS hits, confirmation (AID 602473); format: functional; details: read-out: EC50_Mean
# Cytochrome P450 2C19 = Cytochrome P450 2C19 (Homo sapiens, UniProt P33261); test: Cytochrome panel assay with activity outcomes. Panel member name: p450-cyp2c19 Compounds with AC50 equal or less than 10 uM are considered active; format: functional; details: read-out: AC50
# Cytochrome P450 1A2 = target: T2, Cytochrome P450 1A2 (Homo sapiens, UniProt P05177);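 note: PubChem cytochrome P450 panel assay, CYP1A2 panel member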
# T2 sequence (P05177 whole entry): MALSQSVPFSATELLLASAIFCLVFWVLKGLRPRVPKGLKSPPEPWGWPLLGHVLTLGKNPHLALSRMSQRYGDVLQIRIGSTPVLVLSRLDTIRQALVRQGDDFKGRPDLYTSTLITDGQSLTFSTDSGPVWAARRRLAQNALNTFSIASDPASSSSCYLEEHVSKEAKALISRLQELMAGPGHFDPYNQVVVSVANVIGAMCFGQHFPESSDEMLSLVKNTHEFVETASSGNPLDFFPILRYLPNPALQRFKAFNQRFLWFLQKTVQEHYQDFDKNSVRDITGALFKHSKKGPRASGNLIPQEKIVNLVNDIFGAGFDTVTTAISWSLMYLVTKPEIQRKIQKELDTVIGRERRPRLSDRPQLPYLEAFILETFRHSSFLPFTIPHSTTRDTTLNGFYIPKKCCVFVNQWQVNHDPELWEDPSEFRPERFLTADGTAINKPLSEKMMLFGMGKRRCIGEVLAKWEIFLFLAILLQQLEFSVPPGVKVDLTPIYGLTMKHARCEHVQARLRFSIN
# Cytochrome P450 2C9 = Cytochrome P450 2C9 (Homo sapiens, UniProt P11712)
# Cytochrome P450 3A4 = Cytochrome P450 3A4 (Homo sapiens, UniProt P08684);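 note: CYP3A4 tested as one member of a cytochrome P450 panel screen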
# [3] = NIH-3T3 fibroblast cytotoxicity, dose response, cytotoxicity control, cell-based, fluorescence, Alamar Blue, secondary assay (AID 2327); format: functional;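 note: NIH-3T3 mouse fibroblasts cultured with fluconazole at 8 µg/mL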
# [4] = C. albicans growth with fluconazole, confirmation, fluorescence, retest (AID 2467); format: functional, cell-based
# [5] = growth suppression of beta-catenin-knockout colon cells, dose response, cell-based, HCT116, human colon tumor (AID 1045); format: functional;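 note: HCT116 colon tumor cells with beta catenin knocked out; cells exposed to compound for 60 hours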
# [6] = growth suppression of PTEN-null colon cells, dose response, cell-based, HCT116 PTEN knockout (AID 1047); format: functional;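 note: HCT116 colon tumor cells with PTEN knocked out; cells exposed to compound for 60 hours before readout; potency for loss of cell viability measured by luminescence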
# [7] = tested on: Streptococcus sp. 'group A'; test: growth inhibition of control SK(-) GAS strain, dose response, counter-screen for streptokinase expression inhibitor project, luminescence, kanamycin, BacTiterGlo, confirmation (AID 1900); format: functional, organism-based
# INS1 = test: beta cell apoptosis inhibitors, cytokine rescue, dose response, luminescence, retest (AID 449756); format: functional, cell-based; details: Rattus norvegicus;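 note: cell death triggered by IL-1 beta plus TNF-alpha plus IFN-gamma mixture; protective hits raise ATP signal compared with cytokine alone wells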
# Streptococcus = test: Group A Streptococcus viability loss, dose response, counter-screen for streptokinase expression inhibitor project, luminescence, BacTiterGlo (AID 1915); format: functional, organism-based;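 note: potency for reduction of bacterial viability or growth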
# [8] = Luminescence Cell-Based Dose Response HTS to Identify Inhibitors of 5'UTR Stem-Loop Driven Prion Protein mRNA Translation in H4 Neuroglioblastoma Cells. [Related pubchem assays: 1827 (Project Summary), 1813 (Primary HTS)]; format: functional
# [9] = inhibitors of firefly luciferase expression or activity, dose response, H4 neuroglioma cells, luminescence (AID 1990); format: functional, cell-based
# [10] = inhibitors of SNCA 5'UTR-driven reporter translation, confirmation, H4 neuroglioma cells, luminescence (AID 1988); format: functional, cell-based
# Cytochrome P450 2D6 = Cytochrome P450 2D6 (Homo sapiens, UniProt P10635);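 note: CYP2D6 member of a cytochrome P450 panel assay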
# [11] = HEp-2 cell cytotoxicity, dose response, cytotoxicity control for RSV inhibitor project, HTS (AID 2410); format: functional; details: human respiratory syncytial virus
# [12] = Shn3 3'UTR reporter inhibitors, dose response, cell-based, Clone20 osteoblasts, firefly luciferase, cherry-picked (AID 624132); format: functional;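 note: firefly luciferase luminescence from reporter carrying the Shn3 3'UTR in osteoblasts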
# [13] = control 3'UTR Renilla luciferase suppression, dose response, counter-screen for Shn3 inhibitor project, cell-based, Clone20-Shn3RL, cherry-picked (AID 624133); format: functional
# [14] = inhibitors of intracellular T. cruzi replication, confirmation, NIH3T3 host cells, beta-gal luminescence (AID 2044); format: functional, cell-based;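 note: intracellular parasites grown in NIH/3T3 mouse fibroblasts as host cells; luminescent beta-galactosidase reporter signal from transgenic T. cruzi replicating inside host cells; inhibitors lower the luminescence signal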
# [15] = cytotoxicity toward NIH3T3 fibroblasts, dose response, counter-screen, cell-based, ATP luminescence, mouse fibroblasts (AID 2010); format: functional;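 note: cells exposed to compound for about 90 hours before reading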
# Chain of Cytochrome P450 2C19 (P33261 whole entry): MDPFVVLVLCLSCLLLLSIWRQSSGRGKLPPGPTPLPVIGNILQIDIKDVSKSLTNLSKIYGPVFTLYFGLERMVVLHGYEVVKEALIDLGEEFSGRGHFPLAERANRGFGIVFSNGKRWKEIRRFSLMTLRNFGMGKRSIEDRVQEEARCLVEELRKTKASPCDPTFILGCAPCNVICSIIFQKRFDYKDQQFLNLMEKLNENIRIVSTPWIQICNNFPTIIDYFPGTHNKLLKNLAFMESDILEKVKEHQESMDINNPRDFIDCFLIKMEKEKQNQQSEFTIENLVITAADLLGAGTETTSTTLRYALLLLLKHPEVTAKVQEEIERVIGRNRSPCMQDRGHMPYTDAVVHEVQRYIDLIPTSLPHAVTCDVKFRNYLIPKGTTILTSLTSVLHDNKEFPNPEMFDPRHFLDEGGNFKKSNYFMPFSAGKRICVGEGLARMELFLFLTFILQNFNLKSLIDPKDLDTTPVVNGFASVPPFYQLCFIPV
# Chain of Cytochrome P450 2D6 (P10635 whole entry): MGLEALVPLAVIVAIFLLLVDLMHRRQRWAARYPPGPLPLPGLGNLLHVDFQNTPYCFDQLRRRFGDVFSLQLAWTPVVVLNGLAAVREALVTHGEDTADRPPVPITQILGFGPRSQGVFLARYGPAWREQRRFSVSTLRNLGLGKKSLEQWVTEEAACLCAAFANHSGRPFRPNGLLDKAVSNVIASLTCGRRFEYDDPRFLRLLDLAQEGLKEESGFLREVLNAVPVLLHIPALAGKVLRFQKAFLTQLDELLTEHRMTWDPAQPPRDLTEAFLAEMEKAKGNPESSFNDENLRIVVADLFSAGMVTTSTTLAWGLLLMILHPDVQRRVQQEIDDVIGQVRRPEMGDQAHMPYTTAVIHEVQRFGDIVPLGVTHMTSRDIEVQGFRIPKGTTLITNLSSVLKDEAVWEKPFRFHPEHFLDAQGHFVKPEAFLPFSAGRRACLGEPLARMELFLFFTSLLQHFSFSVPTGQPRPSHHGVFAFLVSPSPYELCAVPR
# Chain of Cytochrome P450 3A4 (P08684 whole entry): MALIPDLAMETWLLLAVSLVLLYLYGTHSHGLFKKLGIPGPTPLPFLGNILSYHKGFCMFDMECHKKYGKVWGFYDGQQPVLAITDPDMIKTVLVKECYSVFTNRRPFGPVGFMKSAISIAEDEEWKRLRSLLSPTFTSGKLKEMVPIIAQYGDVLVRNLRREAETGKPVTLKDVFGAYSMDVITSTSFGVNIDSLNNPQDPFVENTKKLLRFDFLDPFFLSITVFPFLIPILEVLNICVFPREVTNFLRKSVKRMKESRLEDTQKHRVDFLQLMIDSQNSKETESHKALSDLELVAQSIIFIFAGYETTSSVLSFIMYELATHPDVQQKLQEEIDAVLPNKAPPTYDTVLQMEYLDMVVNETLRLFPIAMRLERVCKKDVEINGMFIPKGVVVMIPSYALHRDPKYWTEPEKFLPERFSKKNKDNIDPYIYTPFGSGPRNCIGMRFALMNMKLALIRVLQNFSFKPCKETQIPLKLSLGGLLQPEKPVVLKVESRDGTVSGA
# Chain of Cytochrome P450 2C9 (P11712 whole entry): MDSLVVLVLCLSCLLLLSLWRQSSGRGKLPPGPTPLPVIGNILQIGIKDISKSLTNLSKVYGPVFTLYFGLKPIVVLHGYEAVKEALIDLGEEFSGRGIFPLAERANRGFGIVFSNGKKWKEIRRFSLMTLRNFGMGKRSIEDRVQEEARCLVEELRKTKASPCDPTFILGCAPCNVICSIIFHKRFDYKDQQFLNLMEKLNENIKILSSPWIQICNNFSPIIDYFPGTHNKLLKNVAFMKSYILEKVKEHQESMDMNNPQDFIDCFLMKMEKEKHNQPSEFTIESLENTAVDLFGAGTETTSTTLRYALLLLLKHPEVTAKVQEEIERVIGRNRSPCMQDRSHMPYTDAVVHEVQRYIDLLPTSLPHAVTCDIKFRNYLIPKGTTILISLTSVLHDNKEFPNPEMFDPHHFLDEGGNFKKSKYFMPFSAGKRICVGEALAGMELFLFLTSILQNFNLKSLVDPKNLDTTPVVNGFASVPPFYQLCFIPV
smiles,measurement,setting,value
Cc1ccc(C(=O)Nc2nnc(-c3ccco3)o2)cc1C,IC50,[1],> 47.1 µM (inactive)
same,EC50,[2],> 53 µM (inactive)
Clc1ccccc1OCCCCN1CCCC1,AC50,Cytochrome P450 2C19,28.2 µM (inconclusive)
same,AC50,Cytochrome P450 1A2,15.8 µM (inconclusive)
O=C(/C=C/c1ccco1)OCc1nnc(-c2ccc(Cl)cc2)o1,IC50,[1],> 47.1 µM (inactive)
same,EC50,[2],> 53 µM (inactive)
CCOc1ccc(-c2c(=O)n(OCc3ccccn3)c3ccccc3[n+]2[O-])cc1,AC50,Cytochrome P450 2C19,15.8 µM (inconclusive)
same,AC50,Cytochrome P450 2C9,5.62 µM (inconclusive)
same,AC50,Cytochrome P450 1A2,12.6 µM (inconclusive)
same,AC50,Cytochrome P450 3A4,12.6 µM (inconclusive)
O=C(O)c1ccc(Nc2cnc3ccccc3n2)cc1,EC50,[3],> 160 µM (inactive)
same,EC50,[4],> 38 µM (not active)
O=C(Nc1ccc(F)cc1)c1nc[nH]c1C(=O)Nc1ccc([N+](=O)[O-])cc1,EC50,[5],11.2 µM (active)
same,EC50,[6],17.6 µM (active)
CCc1ccc(OCC(=O)NC(N=C(S)Nc2ccc(C)cc2C)C(Cl)(Cl)Cl)cc1 (stereo not drawn),EC50,[7],3.3 µM (active)
same,AC50,INS1,7.48 µM (active)
same,EC50,[5],41.1 µM (active)
same,EC50,[6],30.8 µM (active)
same,EC50,Streptococcus,8.13 µM (active)
c1ccc(-n2nnnc2Oc2cccc3cccnc23)cc1,EC50,[5],20.8 µM (active)
same,EC50,[6],22.6 µM (active)
CC(C)OC(=O)/C(=C\c1ccc2c(c1)c1ccccc1n2C)NC(=O)c1ccccc1,AC50,Cytochrome P450 2C19,2.51 µM (inconclusive)
same,AC50,Cytochrome P450 2C9,6.31 µM (inconclusive)
same,AC50,Cytochrome P450 1A2,2.24 µM (inconclusive)
COc1ccc(CCNC(=O)c2c(N)n(CCN3CCOCC3)c3nc4ccccc4nc23)cc1OC,EC50,[8],13.3 µM (active)
same,EC50,[9],> 120 µM (not active)
same,EC50,[6],94.9 µM (active)
same,EC50,[10],> 120 µM (not active)
O=C(Nc1cccc(F)c1)N1CC[C@@]2(CCCN(C(=O)Oc3ccccc3)C2)C1,AC50,Cytochrome P450 2D6,20 µM (inconclusive)
same,AC50,Cytochrome P450 1A2,15.8 µM (inconclusive)
same,AC50,Cytochrome P450 3A4,5.01 µM (inconclusive)
CSc1cccc(NC(=O)C(C)C)c1,IC50,[1],> 47.1 µM (inactive)
same,EC50,[2],> 53 µM (inactive)
CCOc1ccc(C2C(C(=O)c3ccc4c(c3)OCCO4)=C(O)C(=O)N2CCCN2CCOCC2)cc1 (stereo not drawn),IC50,[1],> 47.1 µM (inactive)
same,EC50,[2],> 53 µM (inactive)
CC#CCCC(=O)N1C=Cc2ccccc2C1C#N (stereo not drawn),IC50,[1],> 47.1 µM (inactive)
same,EC50,[2],> 53 µM (inactive)
CSc1nnnn1-c1ccc(Cl)cc1,CC50,[11],30.7 µM (active)
CCCOc1ccccc1C1CC(=O)Nc2cc3c(cc21)OCCO3 (stereo not drawn),AC50,[12],3.66 µM (active)
same,AC50,[13],10.2 µM (active)
O=C(O)c1ccccc1NS(=O)(=O)c1ccc2c(c1)OCCO2,IC50,[1],> 47.1 µM (inactive)
same,EC50,[2],> 53 µM (inactive)
O=C(Nc1ccncc1)Nc1cccc(C(F)(F)F)c1,CC50,[11],> 50 µM (active)
CC(/C=C/c1ccccc1)=N/NC(=O)CNC(=O)c1ccc2c(c1)OCO2,AC50,Cytochrome P450 2D6,0.0501 µM (inconclusive)
same,IC50,[1],> 47.1 µM (inactive)
same,EC50,[2],> 53 µM (inactive)
Cc1nc2ccccc2c(=O)n1/N=C/c1c(O)ccc2ccccc12,AC50,INS1,6.35 µM (active)
COc1ccc(C(=O)N/N=C(\Cc2ncc[nH]2)c2ccccc2)cc1,EC50,[3],7.31 µM (active)
same,EC50,[4],> 38 µM (not active)
same,EC50,[14],1.46 µM (active)
same,EC50,[15],7.77 µM (active)
CN1CCN(C2=Nc3ccccc3Oc3ccc(Cl)cc32)CC1 [LOXAPINE SUCCINATE],AC50,Cytochrome P450 2D6,10 µM (inconclusive) and 31.6 µM (inconclusive)
same,AC50,Cytochrome P450 1A2,31.6 µM (inconclusive) and 3.16 µM (inconclusive)

# Reference: ChEMBL document CHEMBL1201862, “PubChem BioAssay data set” (2004)
